Measurements as given in patent EP1362589A1, “The use of R(+)-alpha-(2,3-dimethoxyphenyl)-1-(2-(4-fluorophenyl)ethyl)-4- piperidinemethanol for the treatment of sleep disorders” (Aventis Pharmaceuticals Inc., priority 1998, dated 2000).

What was measured:
Assay type in all cases: in vivo
[1] = system: newborn Sprague Dawley rats; assay: Depression of genioglossal EMG induced by L-Tryptophan and Pargyline
Description: (§1) Experiments were carried out on newborn Sprague Dawley rats from Iffa Credo breeding centre. The animals were anaesthetised by intraperitoneal injection of low doses of sodium pentobarbitone (7-10mg/kg), kept lying (dorsal cubitus) on a warming blanket and were spontaneously ventilating.
(§2) The EMG activity of the genioglossal muscles and the diaphragm were recorded with fine insulated wires (bipolar recordings) inserted within the muscles, filtered (100-3,000 Hz), amplified (x 5-10,000) and integrated (time constant 50 ms). The rib cage movements were recorded via a captor gently touching the lower ribs and/or the abdominal wall. The air flow changes resulting from the respiratory chest movements were recorded via a facial mask and a highly sensitive pressure recorder.
Ten to fifteen minutes after induction of anaesthesia, the animals received first an intraperitoneal injection of the COMPOUND, and a control recording was taken to define the mean amplitude of the integrated EMGs. Then, the animal received an intraperitoneal injection of L-Tryptophan plus Pargyline ("L-Trp+Parg") 10mg/kg and 50mg/kg, respectively, and the changes in EMG amplitudes were checked every 10 minutes and were expressed as % of control values.

healthy subjects [2] = assay: Oral doses 3-72 mg in healthy subjects, reported drowsiness (Example 4D); conditions: 72mg dose (n=4); only this group among 3, 9, 18, 36 and 72mg reported drowsiness
Description: Only the group receiving the 72mg dose reported drowsiness (n=3).

healthy subjects [3] = assay: Oral doses in healthy subjects, reported drowsiness (Example 4C); conditions: for Drowsiness, % of subjects / Drowsiness, n subjects: group n=4
Description: The following data were reported. […] Only the group receiving the 72mg dose reported drowsiness ([…]).

healthy subjects [4] = assay: Single oral dose in healthy subjects, reported sedation (Example 4A); conditions: orally
Description: Forty percent of the subjects receiving the 20mg dose (2 out of 5) and sixty percent of the subjects receiving the 10mg dose (3 out of 5) experienced mild to moderate sedation. […]

[5] = system: newborn Sprague Dawley rats; assay: Occurrence of obstructive apneas induced by L-Tryptophan and Pargyline injection
Description: Intraperitoneal application of L-Tryptophan (10mg/kg) and Pargyline (50mg/kg) to anaesthesized newborn rats depressed the amplitude of the inspiratory discharges of the genioglossal muscle and induced obstructive apneas (OA).
as §1, §2

[6] = system: patients diagnosed with schizophrenia; assay: Oral twice-daily dosing in patients with schizophrenia, reported insomnia and somnolence (Example 4B); conditions: orally
Description: Forty percent of the subjects receiving the 20mg dose (2 out of 5) and sixty percent of the subjects receiving the 10mg dose (3 out of 5) experienced mild to moderate sedation. […] The following data were reported.

## COc1cccc([C@H](O)C2CCN(CCc3ccc(F)cc3)CC2)c1OC [COMPOUND, R-(+)-α-(2,3-Dimethoxyphenyl)-1-[2-(4-fluorophenyl)ethyl]-4-piperidinemethanol]
[1]; pre-treatment 0.1 mg/kg intraperitoneal, ten animals
  prevention of the depression of genioglossal (GG) discharge induced by L-Trp+Parg: did not prevent
[1]; pre-treatment 1mg/kg intraperitoneal, ten newborn rats
  prevention of the depression of genioglossal (GG) discharge induced by L-Trp+Parg: efficient in preventing the GG depression
[1]; pre-treatment 3mg/kg intraperitoneal, ten animals
  prevention of the depression of genioglossal (GG) discharge induced by L-Trp+Parg: confirmed the efficiency
Healthy subjects [2]
  reported drowsiness, n subjects: 3
Healthy subjects [3]; 9 mg orally
  Drowsiness, % of subjects: 50%
  Drowsiness, n subjects: 2
Healthy subjects [3]; 18 mg orally
  Drowsiness, % of subjects: 100%
  Drowsiness, n subjects: 4
Healthy subjects [3]; 36 mg orally
  Drowsiness, % of subjects: 100%
  Drowsiness, n subjects: 4
Healthy subjects [3]; 72 mg and above
  drowsiness rating: moderate to severe
Healthy subjects [3]; 72 mg orally
  Drowsiness, % of subjects: 75%
  Drowsiness, n subjects: 3
Healthy subjects [3]; 108 mg orally
  Drowsiness, % of subjects: 100%
  Drowsiness, n subjects: 4
Healthy subjects [3]; 138 mg orally
  Drowsiness, % of subjects: 100%
  Drowsiness, n subjects: 4
Healthy subjects [3]; doses below 72 mg
  drowsiness rating: mild or moderate
Healthy subjects [4]; single 10mg dose
  subjects experienced mild to moderate sedation: 3 out of 5
Healthy subjects [4]; single 20mg dose
  subjects experienced mild to moderate sedation: 2 out of 5
[5]; pre-treatment 0.1 mg/kg
  animals that died of respiratory distress: 4 of the 10
  newborn rats in which L-Trp+Parg injection induced OAs: 9 of 10
[5]; pre-treatment 1mg/kg
  newborn rats that did not present short lasting OAs at all: Five out of ten
  newborn rats which displayed OAs: 5 of 10
  newborn rats with long lasting OAs: one
  survival to L-Trp+Parg injection: all animals survived
[5]; pre-treatment 1mg/kg, among the 5 of 10 which displayed OAs
  animals with infrequent OAs (less than 5 short lasting OAs in 60 minutes): 2
[5]; pre-treatment 1mg/kg, between 20-40 min after the injection, mean curve
  peak frequency of occurrence of short lasting OAs: 4 OAs per 10 minute period
[5]; pre-treatment 3mg/kg
  animals that displayed long lasting OAs: None of the 10
  rats with a total of less than 3 short lasting Oas: 3 of 10
  rats with no short lasting Oas: 5 of 10
  survival: all survived
  treated rats with frequent short lasting Oas: 2 of 10
[6]; 10 mg (5mg twice daily)
  Insomnia, % of subjects: N=0; 0%
  Insomnia, N (number of subjects that reported the effect): N=0; 0%
  Somnolence, % of subjects: 20%
  Somnolence, N (number of subjects that reported the effect): 3
[6]; 20 mg (10mg twice daily)
  Insomnia, % of subjects: 21.4%
  Insomnia, N (number of subjects that reported the effect): 3
  Somnolence, % of subjects: 15.4%
  Somnolence, N (number of subjects that reported the effect): N=1;
[6]; 40 mg (20mg twice daily)
  Insomnia, % of subjects: 23.1%
  Insomnia, N (number of subjects that reported the effect): 3
  Somnolence, % of subjects: 15.4%
  Somnolence, N (number of subjects that reported the effect): N=2;

## Cn1c(=O)c2[nH]cnc2n(C)c1=O [theophylline, reference compound]
[1]; 10mg/kg, five newborn rats
  prevention of depression of the amplitude of GG inspiratory discharges by L-Trp+Prg: not prevented
[1]; 30mg/kg, 5 animals
  prevention of depression of the amplitude of GG inspiratory discharges by L-Trp+Prg: not prevented
[5]; 10 mg/kg
  prevention of induction of OAs after L-Trp+Prg injection: not prevented
[5]; 30 mg/kg
  prevention of induction of OAs after L-Trp+Prg injection: not prevented
